Results taken from patent US20240082392A1, “USE OF SYNTHETIC PEPTIDE FOR THE INDUCTION OF ANTITUMOR AND ANTIVIRAL IMMUNITY” (CENTRO DE INGENIERÍA GENÉTICA Y BIOTECNOLOGÍA, priority 2020, published 2024).
Where a SMILES comes first, the peptide text is derived from it. Bridges are numbered along the chain shown (N, C = ends).

Experiments:
L1210 cells [1] = test: Tumor microenvironment in DBA/2 mice: serum cytokines and intratumoral cell populations; format: in vivo; details: for modulation in cytokine levels (IL12p70, TNF-α, IL-6, IL-10): Tat 20 mg/kg intratumoral, DOX 10 mM intratumoral, CX4945 75 mg/kg oral twice a day, five days; for intratumoral Foxp3+ T cell levels: peptide 20 mg/kg, DOX 10 mM, Tat 20 mg/kg, CX4945 75 mg/kg oral
Procedure: To study whether the peptide identified as SEQ ID NO: 1 was capable of modulating the tumor microenvironment, female DBA/2 mice, 6-8 weeks old, and between 17-19 grams were inoculated with 0.5×10^6 L1210 cells, subcutaneously, into right flank (inguinal inoculation). Seven days after tumor challenge, 42 mice with palpable and non-measurable tumor were selected, which were random assigned to six groups of seven animals each. […] DOX (10 mM) and Tat peptide (20 mg/kg), were administered intratumorally, in a final volume of 50 μL, a daily inoculation for five days. The compound CX4945 (75 mg/kg) was administered in 25 mM NaH2PO4 buffer, twice a day, orally, for five days. Seven days after the end of the treatment, the mice were euthanized to obtain the tumors (day 18 of the procedure). Before sacrificing the mice, blood samples were obtained for the cytokines (IL-6, IL-10, IL-12p70, TNF-α) detection by ELISA. Tumors were cut into small pieces and transferred to gentleMACS tubes with RPMI medium, supplemented with an enzyme cocktail from Tumor Dissociation kit (Miltenyi Biotech, Germany). Tumor dissociation was performed using the gentleMACS™ Dissociator kit and a tumor dissociation kit (Miltenyi Biotech, Germany). The digested suspension was filtered, centrifuged and labeled with specific antibodies against CD8, CD4, Foxp3, CD11c, CD86 and CD40.

L1210 cells [2] = test: Vaccination with treated tumor cells, then challenge with live cells; format: in vivo, DBA/2 mice; details: vaccinated with cells treated with 5 μM CX4945 for 24 hours
Procedure: In order to explore whether the cell death induced by the peptide identified as SEQ ID NO: 1 had any immunomodulatory effect, a vaccination schedule was performed in mice with tumor cells previously treated with the peptide identified as SEQ ID NO: 1. For this purpose, 1×10^6 L1210 cells treated in vitro with 40 μM of the peptide identified as SEQ ID NO: 1, or time-matched untreated cells during 3 hours were subcutaneously injected in 0.1 mL in the inguinal area into right flank of 6-8 weeks female DBA/2 mice. After seven days, 1×10^6 live L1210 cells were inoculated on opposite flank, and tumor growth and volume were evaluated until day 45. Tumors were measured with Vernier calipers, three times a week, tumor volume was estimated using the formula: Volume=width^2 (mm)×length/2 (mm). As a positive control, cells treated with 15 μM DOX for 24 hours were used for vaccination. A group vaccinated with 5 μM CX4945-treated cells for 24 hours was also included. In total 4 groups were formed of 10 mice each group.

3LL-OVA cells = test: Cellular immune response, IFN-γ ELISPOT after inoculation of treated cells; format: in vivo, C57/BL6 mice; details: 3LL-OVA cells treated with 40 μM peptide 3 hours, 5 μM CX4945 or 40 μM Tat 3 hours; lymph node cells after 5 days
HL-60 cells = test: Phagocytosis of treated tumor cells by M1 and M2 macrophages; format: cell-based; details: peptide 40 μM and 10 μM 5 hours, CX4945 5 μM 24 hours, Tat 40 μM 5 hours
Procedure: (§1) Treatment with the peptide identified as SEQ ID NO: 1, as described in examples 2 and 3, is capable of increasing “eat me” signals and decreasing “don't eat me” signals. Therefore, it fostered to evaluate whether the treatment with the peptide identified as SEQ ID NO: 1 facilitate phagocytosis of tumor cells by macrophages, and whether this is performed by M1 or M2 macrophages. For that purpose, HL-60 and OCI-AML3 leukemia tumor cell lines were previously stained with 0.5 μM CFSE and treated with 10 or 40 μM of the peptide identified as SEQ ID NO: 1, for five hours, 5 μM CX4945 for 24 hours or 40 μM Tat during 5 hours. Subsequently, cells were washed and co-cultured with each type of M1 and M2 macrophages, at a 1:1 ratio for three hours. Different types of macrophages were obtained from PBMC of healthy donors by Ficoll™ gradient. Monocytes were purified by positive selection, using CD14 beads with an MS column (Miltenyi Biotech, Germany), obtaining 96% purity. Monocytes were seeded at 0.25×10^6 cells/mL/well, in 12-wells plates and were induced with 100 ng/mL of GM-CSF, for seven days, and with 50 ng/mL of IFN-γ for last 24 hours, to obtain M1 macrophages. M2 macrophages were induced with 50 ng/mL of M-CSF for seven days and 100 ng/mL of IL-10 for last 24 hours. […]

OCI-AML3 cells = test: as above; format: cell-based; details: peptide 40 μM and 10 μM 5 hours, CX4945 5 μM 24 hours, Tat 40 μM 5 hours
Procedure: as §1

PDL1 in A549 cells = test: PDL1 levels by flow cytometry; format: cell-based; details: 30 μM peptide, 5 μM CX4945 or 30 μM Tat peptide, 24 hours
Procedure: (§2) Immune checkpoints are currently an important target in cancer immunotherapy, due to their immunosuppressive role during the course of this disease. Taking this into account, effect of the peptide identified as SEQ ID NO: 1 on modulation of PDL1 levels in two non-small cell lung cancer cell lines: […], was evaluated. For that, 5×10^4 cells were seeded in 24-well plates. The day after, cells were treated with 30 μM peptide identified as SEQ ID NO: 1; 5 μM CX4945 or 30 μM Tat peptide, for 24 hours. After treatment, cells were collected, staining with an anti-PDL1 antibody and analyzed by flow cytometry.

PDL1 in H460 cells = test: PDL1 levels by flow cytometry; format: cell-based; details: 30 μM peptide, 5 μM CX4945 or 30 μM Tat peptide, 24 hours
Procedure: as §2

[3] = tested on: Lewis Lung Carcinoma cells; test: Anti-PDL1 therapy in a murine model of lung cancer; format: in vivo, C57/BL6 mice
Description: Taking into account the results obtained in the in vitro test, it was decided to evaluate whether the use of the peptide identified as SEQ ID NO: 1 improved the antitumor efficacy of anti-PDL1 therapy in a murine model of lung cancer. For that, 2×10^5 Lewis Lung Carcinoma cells were subcutaneously implanted (day 0) in 6-8 weeks old C57/BL6 female mice with 17-19 grams of body weight. Nine days after the tumor challenge, 42 animals with 40 mm^3 tumors were randomized into six groups with seven mice each. CX4945 (75 mg/kg) was orally administered in 25 mM NaH2PO4 buffer twice daily. 40 mg/kg of the peptide identified as SEQ ID NO: 1 and 100 μg anti-PDL1 antibody (clone 10F.9G2, isotype rat IgG2b kappa) were intraperitoneally applied. Tumor volume and body weight were determined 3 times a week for 40 days. Tumor volume was measured and calculated as described in Example 7.

[4] = tested on: RagOT-I cells / dendritic cells matured with treated 3LL cells; test: In vitro activation of OT-I CD8+ T cells by dendritic cells, IFN-γ ELISA; format: cell-based, mouse; details: versus negative control, CX4945 and Tat peptide
Procedure: Additionally, the ability of activating CD8+ T cells in vitro by these dendritic cells matured with peptide-treated 3LL cells was evaluated. For this purpose, dendritic cells previously co-incubated with tumor cells, under the conditions described above, were washed and loaded with the […] peptide from OVA, MHC class I restricted, at different concentrations (0, 10, 30 and 100 pg/mL) during three hours. After that time, they were washed again and co-incubated with RagOT-I cells in a 1:1 ratio for 48 hours. IFN-γ production was finally quantified by ELISA. RagOT-I cells co-incubated with dendritic cells previously incubated with untreated 3LL cells constituted the negative control of experiment.

K562 cells = test: NK cytotoxic activity, Cr51 release; format: cell-based; details: 50 μM
Procedure: The release of danger signals such as HSP70 and CRT has been reported to be involved in increasing the susceptibility of tumor cells toward cytotoxic activity of NK cells. Therefore, the effect of the peptide identified as SEQ ID NO: 1 on the susceptibility of tumor cells toward NK cytotoxic activity was evaluated. To do that, the classic target cells to NK activity, K562 cells, were employed. Target cells were labeled with Cr^51 (approximate specific activity: 100 μCi/μg) by incubation for 70 minutes at 37° C. Subsequently, target cells were washed three times with RPMI medium supplemented with 2% FBS and seeded in 96-well plates, at a target:effector ratio of 1:25. On the other hand, NK cells were isolated from peripheral blood mononuclear cells (PBMC) of healthy donors, by negative selection, using magnetic beads (Miltenyi Biotec). Thus, CD56+CD3− NK cells were obtained with more than 96% purity. The peptide identified as SEQ ID NO: 1 was added to the co-culture at 12.5; 25 and 50 μM. After 4 hours of incubation, supernatant was collected for the measurement of Cr^51 release using a scintillation counter. The percentage of specific lysis was calculated as follows: […]
Target cells without coincubation with effector cells were employed as spontaneous lysis control. Target cells with the peptide identified as SEQ ID NO: 1 constitute the toxicity control of the peptide.

[5] = tested on: OCI-AML3 and HL-60 tumor cells; details: read-out: IC50 dose

Row | SMILES | modulation in cytokine levels (IL12p70, TNF-α, IL-6, IL-10) (L1210 cells [1]) | intratumoral Foxp3+ T cell levels (L1210 cells [1]) | vaccine effect of treated cells (L1210 cells [2]) | response of IFN-γ-secreting effector cells (ELISPOT) against OVA and OVA class I peptide (3LL-OVA cells) | susceptibility to be phagocytosed by M1 macrophages (HL-60 cells) | susceptibility to be phagocytosed by M1 macrophages (OCI-AML3 cells) | % PDL1+ cells (PDL1 in A549 cells) | IFM (PDL1 in A549 cells) | PDL1 expression (PDL1 in A549 cells; in words) | % PDL1+ cells (PDL1 in H460 cells) | IFM (PDL1 in H460 cells) | PDL1 expression (PDL1 in H460 cells; in words) | tumor volume, combined with anti-PDL1 antibody ([3]; as alone, plus 100 μg anti-PDL1 antibody intraperitoneal, days 9, 12, 15, 18) | tumor progression (tumor volume), alone ([3]; peptide 40 mg/kg intraperitoneal or CX4945 75 mg/kg oral twice daily, days 9-13) | IFN-γ production by CD8+ OT-I cells [4] | toxicity to target cells (K562 cells) | IC50 [5]
1 | O=C(O)c1ccc2c(c1)nc(Nc1cccc(Cl)c1)c1ccncc12 [CX4945] | not observed | not observed | did not induce any vaccine effect | not able to generate this type of response | not observed | not observed | 29.6% | 16.2 | Differences were not observed | 25.2% | 15.23 | Differences were not observed | not observed | not observed | – | – | –
2 | COc1cccc2c1C(=O)c1c(O)c3c(c(O)c1C2=O)C[C@@](O)(C(=O)CO)C[C@@H]3O[C@H]1C[C@H](N)[C@H](O)[C@H](C)O1 [DOX, doxorubicin] | not observed | significant decrease | – | – | – | – | – | – | – | – | – | – | – | – | significantly higher | – | –
3 | CSCC[C@@H]1NC(=O)[C@H](Cc2c[nH]c3ccccc23)NC(=O)[C@@H](NC(=O)[C@H](C)NC(=O)[C@H](CCC(N)=O)NC(=O)[C@@H]2CCCN2C(=O)[C@@H]2CCCN2C(=O)[C@H](CCCNC(=N)N)NC(=O)[C@H](CCCNC(=N)N)NC(=O)[C@H](CCCNC(=N)N)NC(=O)[C@H](CCC(N)=O)NC(=O)[C@H](CCCNC(=N)N)NC(=O)[C@H](CCCNC(=N)N)NC(=O)[C@H](CCCCN)NC(=O)[C@H](CCCCN)NC(=O)[C@H](CCCNC(=N)N)NC(=O)CN)CSSC[C@@H](C(=O)O)NC(=O)[C@H]([C@@H](C)O)NC(=O)CNC(=O)[C@H](CC(C)C)NC(=O)[C@H](Cc2c[nH]cn2)NC(=O)[C@H](CCCNC(=N)N)NC(=O)[C@@H]2CCCN2C(=O)[C@H](CO)NC1=O [peptide identified as SEQ ID NO: 1] (H-GRKKRRQRRRPPQACWMSPRHLGTC-OH; disulfide 15-25) | – | – | – | – | – | – | – | – | – | – | – | – | – | – | – | showed toxicity | 40 µM
